Assay results taken from PMC7016953 (Cells, 2020).

Legend:
[1] = tested on: TRPC4, TRPC5, TRPA1, TRPM2, TRPM3, TRPM8, TRPV1, TRPV2, TRPV4, or TRPV4; test: Selectivity profiling, inhibition of activator responses in the TRP channel panel; assay type: cell-based; conditions: 100 µM, subsequent stimulation with channel-specific activators
Experimental: Human embryonic kidney 293 (HEK293) cells were stably transfected with expression plasmids that encode hTRPC3-YFP, hTRPC6-YFP, hTRPC7-YFP, mTRPC4ß-YFP, rTRPV1-CFP, rTRPV2-YFP, rTRPV3-YFP, mTRPV4-YFP, or hTRPM2 as previously described. Cell lines were cultured in Earle’s minimum essential medium (MEM; Sigma, Munich, Germany), supplemented with 10% fetal calf serum (Gibco Thermo Fisher Scientific, Darmstadt, Germany), 2 mM L-glutamine, and required concentrations of geneticin in a range of 0.4–1 mg/mL. A HEK293mTRPC5-YFP cell line was maintained and induced as described before. […] For electrophysiological and single cell [Ca^2+]i imaging experiments, PC12 cells were plated onto 25 mm poly-L-lysine-coated glass coverslips and measured 24–48 h after seeding. […]
The primary compound screen and the generation of concentration response curves in HEK293 cells or in PC12 cells were performed by using a custom-made fluorescence plate imager built into a robotic liquid handling station equipped with a 96-tip multichannel head (Freedom Evo 150, Tecan, Männedorf, Switzerland) as described previously. […] Plates were mounted on the imager, and fluorescence signals were recorded with a cooled Zyla 5.5 camera (Andor, Belfast, UK) through a 515 nm long pass filter. […] When inhibitory potencies were evaluated, a second pipetting step with the respective reference agonist was performed. […]

[2] = tested on: PC12 cells (native TRPC3 channel complexes); test: Whole-cell patch-clamp recordings in PC12 cells; assay type: cell-based, rat; conditions: 50 µM artemisinin, whole cell
Experimental: The recordings of TRPC3, TRPC6, or TRPC7 membrane currents in HEK293 or PC12 cells were realized by using a Multiclamp 700B amplifier with a Digidata 1440A digitizer controlled by the PClamp 10 software (all Molecular Devices, Sunnyvale, CA, U.S.A.). Recordings were obtained at room temperature either in the whole-cell or in an outside-out configuration as indicated. Cells were seeded as described above, but at lower density, mounted in a chamber (Warner Instruments, Hamden, CT; U.S.A.), placed onto the stage of an inverted microscope, and perfused with required solution. The standard extracellular solution contained 140 mM NaCl, 5 mM CsCl, 2 mM MgCl2, 1 mM CaCl2, 10 mM HEPES, and 0.035% BSA adjusted to pH 7.4 with NaOH. The composition of standard intracellular solution was 140 mM CsCl, 1 mM MgCl2, 5 mM EGTA, and 10 mM HEPES adjusted to pH 7.25 with CsOH; the osmolarity was 295 mOsm l^−1. In outside-out measurements, the pipette solution contained 5 mM EGTA and 1.1 mM CaCl2 to achieve a calculated free Ca^2+ concentration of 100 nM.
Patch pipettes were pulled from borosilicate glass capillaries BG150F-8P (Science Products, Hofheim, Germany) with a PIP6 pipette puller (HEKA Elektronik, Lambrecht, Germany). […] In all whole-cell measurements, the series resistance was lower than 13 MΩ, and compensated by 70%. If the access was unstable during the experiment (increase in series resistance by more than 15% at the end of the experiment), the cell was omitted from the analysis. To record current/voltage (I/V) curves, voltage ramps (400 mV s^−1) ranging from –100 to +100 mV were applied. Currents were filtered at 3 kHz with a four-pole Bessel filter and sampled at 10 kHz. […]
Figure 9 Artemisinin-induced ionic currents in HEK293 cells and in PC12 cells are sensitive to established TRPC3 inhibitors. […] Concentration–response curves were normalized to responses measured without an inhibitor (controls), and IC50 values were obtained by fitting a four-parameter Hill equation to the data. […]

For `C[C@@H]1CC[C@H]2[C@@H](C)C(=O)O[C@@H]3O[C@@]4(C)CC[C@@H]1[C@]32OO4` [artemisinin], the “inhibition of the investigated channels compared to the solvent control” value [1] was “did not observe a significant inhibition” and the “currents in PC12 cells” value [2] was “induced a Ca^2+ influx and TRPC3-like currents”.
